What was measured:
[1] = surface tension of aqueous solution (0.1%); type: physicochemical; conditions: for γs (surface tension): aqueous solution at a concentration of 0.1%; for surface tension: aqueous solution containing 0.1%
Description: (§1) The surface tension of an aqueous solution containing 0.1% of this salt is 19.2 mN m^-1 at 25° C. The interfacial tension of an aqueous solution containing 0.1% of this salt, in equilibrium with cyclohexane, is 5.8 mN m^-1 at 25° C.
(§2) The surface tension of an aqueous solution containing 0.1% of this salt is 15.5 mN m^-1 at 25° C. The interfacial tension of an aqueous solution containing 0.1% of this salt, in equilibrium with cyclohexane, is 6.4 mN m.-1 at 25° C.
This yields the corresponding quaternary salts of formula: [drawing 19] which are colorless or slightly orange-colored pastes. These salts are completely water-soluble. Their yield and the surface tension at 25° C. of an aqueous solution at a concentration of 0.1% are shown in the second and third columns of Table 5.
(§3) The surface tension Ys and interfacial tension Yi (relative to cyclohexane)of the ammonium salt in question, which are measured at 25° C. in aqueous solution at a concentration of 0.1%, are shown in the fourth and fifth columns of Table 6, the third column showing the yield.
(§4) The surface tension of an aqueous solution containing 0.1% of this salt is 15.5 mN m^-1 at 25° C. The interfacial tension in relation to cyclohexane in the same conditions is 5.5 mN m^-1 .
(§5) By proceeding in the same manner starting with 1,3-dibromopropane, the double quaternary salt of formula: [drawing 24] is obtained in a 98% yield. The surface tension of an aqueous solution containing 0.1% of this salt is 16.4 mN m^-1 at 25° C. The interfacial tension relative to cyclohexane in the same conditions is 7.7 mN m^1.
The surface tension of an aqueous solution containing 0.1% of this N-oxide at 25° C. is 16.3 mN m^-1
The surface tension of an aqueous solution containing 1 0.1% of this betaine is 16.2 mN m^-1.

[2] = interfacial tension of aqueous solution (0.1%) relative to cyclohexane; type: physicochemical; conditions: 25° C.; for γi (interfacial tension relative to cyclohexane): Table 6, aqueous solution at a concentration of 0.1%
Description: as §1, §2, §3, §4, §5

[3] = aqueous solution containing 0.1%, cyclohexane

| SMILES | γs (surface tension) ([1]; Table 6, 25° C.) | γi (interfacial tension relative to cyclohexane) ([2]; cyclohexane) | also measured |
| --- | --- | --- | --- |
| CCCCCCCCCCCCCCCC[N+](C)(C)CCNC(=S)NCCC(F)(F)C(F)(F)C(F)(F)C(F)(F)F [C4 F9 / C16 H33] | 26.8 mN m^-1 | 2.1 mN m^-1 | – |
| C[N+](C)(CCO)CCNC(=S)NCCC(F)(F)C(F)(F)C(F)(F)C(F)(F)C(F)(F)C(F)(F)F [HOC2 H4Br] | – | – | γs (surface tension) ([1]; Table 5, 25° C.): 15.4 mN m^-1 |
| CCCCCCCC[N+](C)(C)CCNC(=S)NCCC(F)(F)C(F)(F)C(F)(F)C(F)(F)F [C4 F9 / C8 H17] | 19.7 mN m^-1 | 0.7 mN m^-1 | – |
| CCCCC[N+](C)(C)CCNC(=S)NCCC(F)(F)C(F)(F)C(F)(F)C(F)(F)C(F)(F)C(F)(F)C(F)(F)C(F)(F)F [C8 F17 / C5 H11] | 16 mN m^-1 | 2 mN m^-1 | – |
| C=CC[N+](C)(C)CCNC(=S)NCCC(F)(F)C(F)(F)C(F)(F)C(F)(F)C(F)(F)C(F)(F)F [CH2CHCH2Br] | – | – | γs (surface tension) ([1]; Table 5, 25° C.): 16.4 mN m^-1 |
| C[N+](C)(CCNC(=S)NCCC(F)(F)C(F)(F)C(F)(F)C(F)(F)C(F)(F)C(F)(F)F)CC[N+](C)(C)CCNC(=S)NCCC(F)(F)C(F)(F)C(F)(F)C(F)(F)C(F)(F)C(F)(F)F | – | – | surface tension ([1]; 25° C.): 15.5 mN m^-1; interfacial tension in equilibrium with / relative to cyclohexane [2, 3]: 5.5 mN m^-1 |
| CCCCCCCC[N+](C)(C)CCNC(=S)NCCC(F)(F)C(F)(F)C(F)(F)C(F)(F)C(F)(F)C(F)(F)F [C6 F13 / C8 H17] | 15.9 mN m^-1 | 1.4 mN m^-1 | – |
| CCCCCCCCCCCC[N+](C)(C)CCNC(=S)NCCC(F)(F)C(F)(F)C(F)(F)C(F)(F)F [C4 F9 / C12 H25] | 23.1 mN m^-1 | 1.9 mN m^-1 | – |
| CCCCCCCCCCCC[N+](C)(C)CCNC(=S)NCCC(F)(F)C(F)(F)C(F)(F)C(F)(F)C(F)(F)C(F)(F)C(F)(F)C(F)(F)F [C8 F17 / C12 H25] | 15.2 mN m^-1 | 2.2 mN m^-1 | – |
| CCCCCCCC[N+](C)(C)CCNC(=S)NCCC(F)(F)C(F)(F)C(F)(F)C(F)(F)C(F)(F)C(F)(F)C(F)(F)C(F)(F)F [C8 F17 / C8 H17] | 15.9 mN m^-1 | 3.2 mN m^-1 | – |
| C[N+](C)(CCC[N+](C)(C)CCNC(=S)NCCC(F)(F)C(F)(F)C(F)(F)C(F)(F)C(F)(F)C(F)(F)F)CCNC(=S)NCCC(F)(F)C(F)(F)C(F)(F)C(F)(F)C(F)(F)C(F)(F)F | – | – | surface tension ([1]; 25° C.): 16.4 mN m^-1; interfacial tension relative to cyclohexane ([2]; in the same conditions: aqueous solution containing 0.1%): 7.7 mN m^1 |
| CCCCCCCCCCCCCCCC[N+](C)(C)CCNC(=S)NCCC(F)(F)C(F)(F)C(F)(F)C(F)(F)C(F)(F)C(F)(F)F [C6 F13 / C16 H33] | 20.3 mN m^-1 | 0.7 mN m^-1 | – |
| CCCCCCCCCCCC[N+](C)(C)CCNC(=S)NCCC(F)(F)C(F)(F)C(F)(F)C(F)(F)C(F)(F)C(F)(F)F [C6 F13 / C12 H25] | 17.5 mN m^-1 | 0.8 mN m^-1 | – |
| C[N+](C)(C)CCNC(=S)NCCC(F)(F)C(F)(F)C(F)(F)C(F)(F)C(F)(F)C(F)(F)F | – | – | surface tension ([1]; 25° C.): 19.2 mN m^-1; interfacial tension in equilibrium with / relative to cyclohexane [2, 3]: 5.8 mN m^-1 |
| C[N+](C)(CCNC(=S)NCCC(F)(F)C(F)(F)C(F)(F)C(F)(F)C(F)(F)C(F)(F)F)Cc1ccccc1 | – | – | γs (surface tension) ([1]; Table 5, 25° C.): 17.4 mN m^-1 |
| C[N+](C)(CCNC(=S)NCCC(F)(F)C(F)(F)C(F)(F)C(F)(F)C(F)(F)C(F)(F)F)CC(=O)[O-] | – | – | surface tension ([1]; temperature not given): 16.2 mN m^-1 |
| C[N+](C)([O-])CCNC(=S)NCCC(F)(F)C(F)(F)C(F)(F)C(F)(F)C(F)(F)C(F)(F)F | – | – | surface tension ([1]; 25° C.): 16.3 mN m^-1 |
| C[N+](C)(C)CCNC(=S)NCCC(F)(F)C(F)(F)C(F)(F)C(F)(F)C(F)(F)C(F)(F)C(F)(F)C(F)(F)F | – | – | surface tension ([1]; 25° C.): 15.5 mN m^-1; interfacial tension in equilibrium with cyclohexane [2, 3]: 6.4 mN m.-1 |

From US5026910A, “Polyfluoroalkyl nitrogen compounds, processes for their preparation and their use” (Societe Atochem, priority 1989, dated 1991)
